The text below walks through data of patent publication US5215916A, “Super glucocorticoid receptors: receptors with increased affinity and specificity for glucocorticoid steriods” (priority 1991, dated 1993).

For the assay, the target named is T1, C661S mutant glucocorticoid receptor (Rattus norvegicus, UniProt P06536, C661S/D98G).
T1 construct: Thus the full length receptor was removed from the VARO vector with BamHI and inserted into the SVL vector; expressed in transfected cells; host or cells: COS-7 (cytosol)
T1 sequence (P06536 1-795 D98G/C661S): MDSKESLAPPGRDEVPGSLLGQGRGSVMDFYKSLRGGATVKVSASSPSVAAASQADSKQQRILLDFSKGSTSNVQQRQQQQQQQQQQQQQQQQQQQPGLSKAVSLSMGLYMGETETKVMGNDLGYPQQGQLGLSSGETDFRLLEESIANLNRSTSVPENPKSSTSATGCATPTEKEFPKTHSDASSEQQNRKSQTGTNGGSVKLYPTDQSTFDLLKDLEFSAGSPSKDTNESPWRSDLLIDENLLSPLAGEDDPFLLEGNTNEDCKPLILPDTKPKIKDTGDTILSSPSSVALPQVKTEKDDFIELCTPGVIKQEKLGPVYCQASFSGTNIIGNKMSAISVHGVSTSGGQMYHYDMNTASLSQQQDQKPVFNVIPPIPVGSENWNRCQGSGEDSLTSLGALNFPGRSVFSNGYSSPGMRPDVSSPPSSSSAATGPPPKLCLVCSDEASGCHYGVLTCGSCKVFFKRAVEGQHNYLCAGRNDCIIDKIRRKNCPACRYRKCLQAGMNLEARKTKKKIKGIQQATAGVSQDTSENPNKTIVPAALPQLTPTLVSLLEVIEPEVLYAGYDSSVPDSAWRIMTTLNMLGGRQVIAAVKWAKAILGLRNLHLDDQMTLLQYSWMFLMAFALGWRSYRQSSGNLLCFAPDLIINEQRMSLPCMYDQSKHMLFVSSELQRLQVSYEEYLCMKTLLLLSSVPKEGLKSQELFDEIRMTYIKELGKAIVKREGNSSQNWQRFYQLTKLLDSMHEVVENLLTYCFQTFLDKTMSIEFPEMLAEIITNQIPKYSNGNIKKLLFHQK
As to the kind of experiment: Competition binding assay with [3H]Dex, COS-7 cytosol, C661S receptor. As to conditions: for decrease in relative affinity on mutation of Cys-661: C661S vs wild type, 2.5 hr incubation. The protocol:
Monolayer cultures of COS-7 cells were grown in DMEM (Gibco) supplemented with 5% fetal bovine serum (FBS) (Biofluids) at 37° C. in a 5% CO2 incubator. Standard calcium phosphate transfection methods were used to introduce the wild type and mutant receptor expression vectors (pSVL) into COS-7 cells (100 mm plates [Costar] at a cell density of about 10^6 /plate were each treated with 10 μg of plasmid DNA). After ~16 hrs of incubation at 37° C. in a 5% CO2 incubator, the excess calcium phosphate and precipitate were removed by washing with phosphate buffered saline (PBS). The cells were incubated at 37° C. for another ~48 hr in DMEM/ 5% FBS and harvested by trypsinization followed by centrifugation (for 10 min at 1570 ×g) and washing 3 times with PBS. The washed cells were stored at -80° C. until used.
Briefly, 30% cytosol solutions containing ~21 mM Na2 MoO4 were prepared with three parts COS-7 cell cytosol, 2 parts pH 9.5 TAPS buffer, and 5 parts pH 8.8 TAPS buffer. The total EtOH in each experiment was kept constant and at a level of ≤1%. […] After incubation for 2.5 hr, the [^3 H]Dex-Mes-labeled solutions were quick-frozen at -78° C. for subsequent SDS-polyacrylamide gel electrophoresis analysis. The specifically bound [^3 H]Dex was determined by first adding a 10% dextran-coated charcoal solution (added volume =20% of reaction solution volume) to remove free steroid and then subtracting the nonspecific binding seen in the presence of excess nonradioactive Dex.
The average specific binding was determined after 2.5 or 24 hr of incubation as described above, expressed as percentage of the non-competed control and plotted versus the log10 of the concentration of the competing steroid.
The initial data were collected from 2.5 hr binding assays because of concerns about the stability of the receptors over longer times.

Consider `CC#C[C@]1(O)CC[C@H]2[C@@H]3CCC4=CC(=O)CCC4=C3[C@@H](c3ccc(N(C)C)cc3)C[C@@]21C` [RU486], for which the “Relative Ka of Steroid Binding to Receptor” value (from here on “Relative Ka”) is on record as 3.84 ± 1.36 and the “effect of mutation of Cys-661 on binding” value is recorded as “little effect”.

`C[C@]12CC[C@@H]3c4ccc(O)cc4CC[C@H]3[C@@H]1CC[C@@H]2O` [17β-Estradiol, 17β-estradiol]: the “Relative Ka” value came to 0.0017 ± 0.0006 and the “decrease in relative affinity on mutation of Cys-661” value is listed as “approximately 10 fold”.

On to `C[C@]12CCC(=O)C=C1CC[C@@H]1[C@@H]2[C@@H](O)C[C@]2(C=O)[C@@H](C(=O)CO)CC[C@@H]12` [Aldosterone, aldosterone], for which the “Relative Ka” value was determined as 0.016 ± 0.007 and the “decrease in relative affinity on mutation of Cys-661” value is “approximately 10 fold”.
